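These data come from cells grown in 96-well plates and exposed to compound for 48 hours at five concentrations. GI50 = concentration required for 50% inhibition of growth. The concentration for full growth arrest is given as TGI.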
Columns and labels:
Assay in all cases: NCI tumour cell line growth inhibition, 48 h
BT-549 breast = system: BT-549 breast
HL-60(TB) leukemia = system: HL-60(TB) leukemia
DU-145 prostate = system: DU-145 prostate
NCI-H226 lung = system: NCI-H226 lung
MDA-MB-231 breast = system: MDA-MB-231 breast
HOP-92 NSCLC = system: HOP-92 NSCLC
CCRF-CEM leukemia = system: CCRF-CEM leukemia
M14 melanoma = system: M14 melanoma
PC-3 prostate = system: PC-3 prostate
HCT-116 colon = system: HCT-116 colon
786-0 renal = system: 786-0 renal
HOP-62 NSCLC = system: HOP-62 NSCLC
MCF7 breast = system: MCF7 breast
IGROV1 ovarian = system: IGROV1 ovarian
COLO 205 colon = system: COLO 205 colon
SN12C renal = system: SN12C renal
NCI-H522 lung = system: NCI-H522 lung
SK-MEL-5 melanoma = system: SK-MEL-5 melanoma
EKVX NSCLC = system: EKVX NSCLC
MOLT-4 leukemia = system: MOLT-4 leukemia
SK-OV-3 ovarian = system: SK-OV-3 ovarian
OVCAR-5 ovarian = system: OVCAR-5 ovarian
OVCAR-3 ovarian = system: OVCAR-3 ovarian
HS 578T breast = system: HS 578T breast
A498 renal = system: A498 renal
SW-620 colon = system: SW-620 colon
ACHN renal = system: ACHN renal
HCC-2998 colon = system: HCC-2998 colon
A549 NSCLC = system: A549 NSCLC
U251 CNS = system: U251 CNS
OVCAR-4 ovarian = system: OVCAR-4 ovarian
SNB-75 CNS = system: SNB-75 CNS
MDA-MB-435 = system: MDA-MB-435
TK-10 renal = system: TK-10 renal
MALME-3M melanoma = system: MALME-3M melanoma
RXF 393 renal = system: RXF 393 renal
NCI-H460 lung = system: NCI-H460 lung
SF-295 CNS = system: SF-295 CNS
UO-31 renal = system: UO-31 renal
RPMI-8226 leukemia = system: RPMI-8226 leukemia
LOX IMVI melanoma = system: LOX IMVI melanoma
UACC-62 melanoma = system: UACC-62 melanoma
OVCAR-8 ovarian = system: OVCAR-8 ovarian
NCI/ADR-RES ovarian = system: NCI/ADR-RES ovarian
K-562 leukemia = system: K-562 leukemia
SK-MEL-28 melanoma = system: SK-MEL-28 melanoma
HT29 colon = system: HT29 colon
SR leukemia = system: SR leukemia
SF-539 CNS = system: SF-539 CNS
SF-268 CNS = system: SF-268 CNS
KM12 colon = system: KM12 colon
SNB-19 CNS = system: SNB-19 CNS
UACC-257 melanoma = system: UACC-257 melanoma
HCT-15 colon = system: HCT-15 colon
CAKI-1 renal = system: CAKI-1 renal
SK-MEL-2 melanoma = system: SK-MEL-2 melanoma
T-47D breast = system: T-47D breast
NCI-H23 lung = system: NCI-H23 lung

O=S(=O)(Nc1ccc(Cl)c(Cl)c1)c1ccc(-c2cnc(C3CC3)o2)cc1
GI50 (BT-549 breast): 911 nM
TGI (BT-549 breast): 18200 nM
GI50 (HL-60(TB) leukemia): 274 nM
TGI (HL-60(TB) leukemia): 3470 nM
GI50 (DU-145 prostate): 736 nM
TGI (DU-145 prostate): 13900 nM
GI50 (NCI-H226 lung): 1820 nM
TGI (NCI-H226 lung): 19500 nM
GI50 (MDA-MB-231 breast): 1590 nM
TGI (MDA-MB-231 breast): 15800 nM
GI50 (HOP-92 NSCLC): 367 nM
TGI (HOP-92 NSCLC): 12500 nM
GI50 (CCRF-CEM leukemia): 439 nM
TGI (CCRF-CEM leukemia): > 77500 nM
GI50 (M14 melanoma): 418 nM
TGI (M14 melanoma): 13100 nM
GI50 (PC-3 prostate): 474 nM
TGI (PC-3 prostate): 14500 nM
GI50 (HCT-116 colon): 458 nM
TGI (HCT-116 colon): 13900 nM
GI50 (786-0 renal): 668 nM
TGI (786-0 renal): 18800 nM
GI50 (HOP-62 NSCLC): 524 nM
TGI (HOP-62 NSCLC): 16700 nM
GI50 (MCF7 breast): 289 nM
TGI (MCF7 breast): 18300 nM
GI50 (IGROV1 ovarian): 587 nM
TGI (IGROV1 ovarian): 15800 nM
GI50 (COLO 205 colon): 501 nM
TGI (COLO 205 colon): 3360 nM
GI50 (SN12C renal): 761 nM
TGI (SN12C renal): 17300 nM
GI50 (NCI-H522 lung): 329 nM
TGI (NCI-H522 lung): 15100 nM
GI50 (SK-MEL-5 melanoma): 478 nM
TGI (SK-MEL-5 melanoma): 14600 nM
GI50 (EKVX NSCLC): 1150 nM
TGI (EKVX NSCLC): 30400 nM
GI50 (MOLT-4 leukemia): 659 nM
TGI (MOLT-4 leukemia): > 63600 nM
GI50 (SK-OV-3 ovarian): 713 nM
TGI (SK-OV-3 ovarian): 39700 nM
GI50 (OVCAR-5 ovarian): 2320 nM
TGI (OVCAR-5 ovarian): 17300 nM
GI50 (OVCAR-3 ovarian): 277 nM
TGI (OVCAR-3 ovarian): 967 nM
GI50 (HS 578T breast): 455 nM
TGI (HS 578T breast): 30700 nM
GI50 (A498 renal): 273 nM
TGI (A498 renal): 2900 nM
GI50 (SW-620 colon): 336 nM
TGI (SW-620 colon): 15300 nM
GI50 (ACHN renal): 606 nM
TGI (ACHN renal): 30700 nM
GI50 (HCC-2998 colon): 1810 nM
TGI (HCC-2998 colon): 10300 nM
GI50 (A549 NSCLC): 672 nM
TGI (A549 NSCLC): 17200 nM
GI50 (U251 CNS): 607 nM
TGI (U251 CNS): 16300 nM
GI50 (OVCAR-4 ovarian): 1160 nM
TGI (OVCAR-4 ovarian): 20600 nM
GI50 (SNB-75 CNS): 138 nM
TGI (SNB-75 CNS): 558 nM
GI50 (MDA-MB-435): 139 nM
TGI (MDA-MB-435): 674 nM
GI50 (TK-10 renal): 10300 nM
TGI (TK-10 renal): 36100 nM
GI50 (MALME-3M melanoma): 2670 nM
TGI (MALME-3M melanoma): 25800 nM
GI50 (RXF 393 renal): 376 nM
TGI (RXF 393 renal): 8440 nM
GI50 (NCI-H460 lung): 368 nM
TGI (NCI-H460 lung): 11600 nM
GI50 (SF-295 CNS): 337 nM
TGI (SF-295 CNS): 11400 nM
GI50 (UO-31 renal): 498 nM
TGI (UO-31 renal): 15900 nM
GI50 (RPMI-8226 leukemia): 612 nM
TGI (RPMI-8226 leukemia): 43500 nM
GI50 (LOX IMVI melanoma): 586 nM
TGI (LOX IMVI melanoma): 19300 nM
GI50 (UACC-62 melanoma): 433 nM
TGI (UACC-62 melanoma): 14500 nM
GI50 (OVCAR-8 ovarian): 1230 nM
TGI (OVCAR-8 ovarian): 20100 nM
GI50 (NCI/ADR-RES ovarian): 345 nM
TGI (NCI/ADR-RES ovarian): 4910 nM
GI50 (K-562 leukemia): 280 nM
TGI (K-562 leukemia): > 38300 nM
GI50 (SK-MEL-28 melanoma): 4190 nM
TGI (SK-MEL-28 melanoma): 21500 nM
GI50 (HT29 colon): 403 nM
TGI (HT29 colon): 16800 nM
GI50 (SR leukemia): 122 nM
TGI (SR leukemia): 62600 nM
GI50 (SF-539 CNS): 399 nM
TGI (SF-539 CNS): 3640 nM
GI50 (SF-268 CNS): 1260 nM
TGI (SF-268 CNS): 23800 nM
GI50 (KM12 colon): 371 nM
TGI (KM12 colon): 15400 nM
GI50 (SNB-19 CNS): 534 nM
TGI (SNB-19 CNS): 17100 nM
GI50 (UACC-257 melanoma): 4620 nM
TGI (UACC-257 melanoma): 27100 nM
GI50 (HCT-15 colon): 405 nM
TGI (HCT-15 colon): 15700 nM
GI50 (CAKI-1 renal): 384 nM
TGI (CAKI-1 renal): 16700 nM
GI50 (SK-MEL-2 melanoma): 2430 nM
TGI (SK-MEL-2 melanoma): 24400 nM
GI50 (T-47D breast): 349 nM
TGI (T-47D breast): 18600 nM
GI50 (NCI-H23 lung): 1330 nM
TGI (NCI-H23 lung): 19600 nM
